Measured values taken from patent publication US8912162B2, “Parenteral formulations of elacytarabine derivatives” (Clavis Pharma ASA, priority 2010, dated 2014).

How the values were obtained:
[1] = test system: acute myeloid leukemia (AML); experiment: Phase II study of single agent elacytarabine as second salvage therapy; assay type: in vivo, patients
Protocol: The formulation described in example 1 was administered to 61 patients in a phase II study of single agent elacytarabine as second salvage therapy for acute myeloid leukemia (AML). […] The response rate was 15%. The median overall survival was 5.3 months versus 1.5 months in the historical control. The median survival for the responders was 13.5 months. The 6 month survival rate was 44%.

[2] = Solubility of elacytarabine in water, phosphate buffer and soybean oil based emulsions; assay type: physicochemical
Source text: Nevertheless, formulation of a therapeutically effective amount of the poorly soluble derivatives of formula (I) into a pharmaceutical composition suitable for parenteral administration represents a problem. For the sake of intravenous administration of the said derivatives, the composition of the excipients should be selected so that the said derivatives are solubilised. The cytarabine derivatives of formula (I) are amphiphilic and have poor solubility both in water and in oils. This limits the choice of potential excipients that can solubilise them.

[3] = test system: MDR resistant cells (A549); conditions: A549, found earlier; cited from earlier work
[4] = test system: Cis-platin resistant cells (NHIK 3025/DDP); conditions: found earlier; cited from earlier work
[5] = Plasma concentration of elacytarabine, Ara-C and Ara-U in patients (FIG. 2); assay type: in vivo; conditions: average values for 61 patients
Source text: FIG. 2: Plasma concentration of elacytarabine, Ara-C and Ara-U (deamination metabolite of Ara-C), average values for 61 patients.

SMILES: CCCCCCCC/C=C/CCCCCCCC(=O)OC[C@H]1O[C@@H](n2ccc(N)nc2=O)[C@@H](O)[C@@H]1O [elacytarabine, 5′-O-(trans-9″-octadecenoyl)-1-β-D-arabinofuranosylcytosine]
- tolerability ([1]; also by elderly patients): well tolerated
- side effects ([1]; phase II AML patients): predictable and manageable
- solubility ([2]; aqueous buffer, phosphate buffer pH 7.4 at 25° C.): < 1 µg/mL
- solubility ([2]; deionised water, 25 °C, water): < 0.1 µg/mL
- dissolution in soybean oil based emulsions ([2]; earlier formulation studies): did not dissolve appropriately
- effect against resistant cells compared with corresponding non-resistant cell line [3]: same effect
- effect against resistant cells compared with corresponding non-resistant cell line [4]: same effect
- exposure to elacytarabine compared to cytarabine (Ara-C) [5]: ≥ 10 fold
